Three compounds from ChEMBL document CHEMBL4196075, “Structure-based optimization of a series of selective BET inhibitors containing aniline or indoline groups” (Eur J Med Chem, 2018) can be followed below.

Assay type in all cases: ADME, organism-based
What all share (settings): in vivo

Data set [1] is described as follows: Tmax in ICR (CD-1) mouse at 20 mg/kg, po via gavage by mass spectrometric method.
A short description of data set [2]: Cmax in ICR (CD-1) mouse at 20 mg/kg, po via gavage by mass spectrometric method. Details: dose 20 mg/kg, route oral.
A short description of data set [3]: AUC (0 to t) in ICR (CD-1) mouse at 20 mg/kg, po via gavage by mass spectrometric method.
The nature of data set [4]: Tmax in ICR (CD-1) mouse at […], po via gavage by mass spectrometric method.
A short description of data set [5]: Cmax in ICR (CD-1) mouse at […], po via gavage by mass spectrometric method.
Data set [6] can be described thus: AUC (0 to t) in ICR (CD-1) mouse at […], po via gavage by mass spectrometric method.

Broadly, the Tmax is the time from dosing to the highest level. What is called Cmax is the highest concentration seen after dosing. The AUC(0-t) is exposure summed from dosing to a finite time, without extrapolation to infinity. High values mean high exposure, low ones low exposure. For the compound `Cc1ccc2c(c1)CCN2C(=O)c1ccc2c(c1)N(C1CC1)C(C)C(=O)N2C` (centres undefined), the time to peak (Tmax) in data set [1] worked out at 15 min. The compound further came in with a Cmax in data set [2] of 335 ng/mL. Further, in data set [3], the area under the curve AUC(0-t) worked out at 189 ng·h/mL.
Take `Cc1ccc2c(c1)CCN2C(=O)c1ccc2c(n1)N(C1CC1)C(C)C(=O)N2C` (centres undefined): the Tmax in data set [4] is 19.8 min. The same compound showed a Cmax in data set [5] of 189 ng/mL. The same compound returned an AUC(0-t) in data set [6] of 383 ng·h/mL.
For `Cc1ccc(NC(=O)c2ccc3c(c2)N(C2CC2)C(C)C(=O)N3C)c(C)c1` (centres undefined), in data set [1], the Tmax amounted to 18 min. For the same compound, the Cmax in data set [2] worked out at 1780 ng/mL. For the same compound, the AUC(0-t) in data set [3] was found to be 2660 ng·h/mL.
